Values joined by “and” are separate entries in the source; they are usually repeats but may differ in a detail not shown here. Equal entries are not always repeated. Values belong to the compound of their own block, whether it stands above or below them.
Assays:
Test in all cases: Caliper, Mobility shift assay off-chip
[1] = target: LYN (human) (UniProt P07948)
[2] = target: CLK3 (human) (UniProt P49761)
[3] = target: DYRK1A (human) (UniProt Q13627)
[4] = target: NEK7 (human) (UniProt Q8TDX7)
[5] = target: CAMK1 (human) (UniProt Q14012)
[6] = target: STK4 (human) (UniProt Q13043)
[7] = target: TSSK2 (human) (UniProt Q96PF2)
[8] = target: MAPK12 (human) (UniProt P53778)
[9] = target: MAPK13 (human) (UniProt O15264)
[10] = target: PIM2 (human) (UniProt Q9P1W9)
[11] = target: PHKG1 (human) (UniProt Q16816)
[12] = target: BLK (human) (UniProt P51451)
[13] = target: FLT4 (human) (UniProt P35916)
[14] = target: CLK2 (human) (UniProt P49760)
[15] = target: KIT (human) (UniProt P10721)
[16] = target: NEK4 (human) (UniProt P51957)
[17] = target: PAK2 (human) (UniProt Q13177)
[18] = target: PRKCE (human) (UniProt Q02156)
[19] = target: PAK6 (human) (UniProt Q9NQU5)
[20] = target: CDC42BPB (human) (UniProt Q9Y5S2)
[21] = target: FER (human) (UniProt P16591)
[22] = target: EPHB2 (human) (UniProt P29323)
[23] = target: MUSK (human) (UniProt O15146)
[24] = target: PRKCH (human) (UniProt P24723)
[25] = target: NUAK1 (human) (UniProt O60285)
[26] = target: MAPK1 (human) (UniProt P28482)
[27] = target: BTK (human) (UniProt Q06187)
[28] = target: IKBKE (human) (UniProt Q14164)
[29] = target: STK24 (human) (UniProt Q9Y6E0)
[30] = target: CDK6 (human) (UniProt Q00534)
[31] = target: AURKA (human) (UniProt O14965)
[32] = target: WNK3 (human) (UniProt Q9BYP7)
[33] = target: IRAK1 (human) (UniProt P51617)
[34] = target: FRK (human) (UniProt P42685)

Chain of CLK3 (human) (P49761 whole entry, looked up): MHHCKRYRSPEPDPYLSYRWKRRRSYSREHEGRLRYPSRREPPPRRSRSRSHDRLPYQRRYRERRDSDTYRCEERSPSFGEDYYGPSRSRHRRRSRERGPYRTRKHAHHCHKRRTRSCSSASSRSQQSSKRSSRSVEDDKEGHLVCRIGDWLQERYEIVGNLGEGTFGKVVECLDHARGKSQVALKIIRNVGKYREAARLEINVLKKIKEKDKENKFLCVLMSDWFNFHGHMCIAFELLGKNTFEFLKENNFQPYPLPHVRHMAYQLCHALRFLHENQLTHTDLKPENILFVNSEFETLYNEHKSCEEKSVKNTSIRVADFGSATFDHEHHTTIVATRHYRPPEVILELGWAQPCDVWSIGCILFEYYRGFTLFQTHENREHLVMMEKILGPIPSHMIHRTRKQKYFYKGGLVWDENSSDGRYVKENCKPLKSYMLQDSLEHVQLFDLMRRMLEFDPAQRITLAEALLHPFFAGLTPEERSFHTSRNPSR
Chain of PIM2 (human) (Q9P1W9 whole entry, looked up): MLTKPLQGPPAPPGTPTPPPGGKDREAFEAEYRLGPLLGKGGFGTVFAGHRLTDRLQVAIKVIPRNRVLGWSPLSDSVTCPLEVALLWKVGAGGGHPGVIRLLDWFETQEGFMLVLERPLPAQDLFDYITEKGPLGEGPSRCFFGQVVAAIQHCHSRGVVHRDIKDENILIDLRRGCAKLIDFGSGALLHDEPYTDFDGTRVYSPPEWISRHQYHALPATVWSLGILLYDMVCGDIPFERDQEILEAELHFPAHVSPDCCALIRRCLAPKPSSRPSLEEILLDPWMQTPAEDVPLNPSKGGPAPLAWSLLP
Chain of MAPK13 (human) (O15264 whole entry, looked up): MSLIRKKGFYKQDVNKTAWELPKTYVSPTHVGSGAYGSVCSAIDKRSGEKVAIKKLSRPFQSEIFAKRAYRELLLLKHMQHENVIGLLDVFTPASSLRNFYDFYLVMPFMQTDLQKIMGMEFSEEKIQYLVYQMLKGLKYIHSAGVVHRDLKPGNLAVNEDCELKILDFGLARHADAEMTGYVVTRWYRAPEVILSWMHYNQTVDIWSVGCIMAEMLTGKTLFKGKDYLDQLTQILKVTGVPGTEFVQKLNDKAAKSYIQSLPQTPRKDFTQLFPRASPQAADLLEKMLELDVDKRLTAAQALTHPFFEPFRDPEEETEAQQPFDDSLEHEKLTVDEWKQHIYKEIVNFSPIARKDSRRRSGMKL
Chain of EPHB2 (human) (P29323 whole entry, looked up): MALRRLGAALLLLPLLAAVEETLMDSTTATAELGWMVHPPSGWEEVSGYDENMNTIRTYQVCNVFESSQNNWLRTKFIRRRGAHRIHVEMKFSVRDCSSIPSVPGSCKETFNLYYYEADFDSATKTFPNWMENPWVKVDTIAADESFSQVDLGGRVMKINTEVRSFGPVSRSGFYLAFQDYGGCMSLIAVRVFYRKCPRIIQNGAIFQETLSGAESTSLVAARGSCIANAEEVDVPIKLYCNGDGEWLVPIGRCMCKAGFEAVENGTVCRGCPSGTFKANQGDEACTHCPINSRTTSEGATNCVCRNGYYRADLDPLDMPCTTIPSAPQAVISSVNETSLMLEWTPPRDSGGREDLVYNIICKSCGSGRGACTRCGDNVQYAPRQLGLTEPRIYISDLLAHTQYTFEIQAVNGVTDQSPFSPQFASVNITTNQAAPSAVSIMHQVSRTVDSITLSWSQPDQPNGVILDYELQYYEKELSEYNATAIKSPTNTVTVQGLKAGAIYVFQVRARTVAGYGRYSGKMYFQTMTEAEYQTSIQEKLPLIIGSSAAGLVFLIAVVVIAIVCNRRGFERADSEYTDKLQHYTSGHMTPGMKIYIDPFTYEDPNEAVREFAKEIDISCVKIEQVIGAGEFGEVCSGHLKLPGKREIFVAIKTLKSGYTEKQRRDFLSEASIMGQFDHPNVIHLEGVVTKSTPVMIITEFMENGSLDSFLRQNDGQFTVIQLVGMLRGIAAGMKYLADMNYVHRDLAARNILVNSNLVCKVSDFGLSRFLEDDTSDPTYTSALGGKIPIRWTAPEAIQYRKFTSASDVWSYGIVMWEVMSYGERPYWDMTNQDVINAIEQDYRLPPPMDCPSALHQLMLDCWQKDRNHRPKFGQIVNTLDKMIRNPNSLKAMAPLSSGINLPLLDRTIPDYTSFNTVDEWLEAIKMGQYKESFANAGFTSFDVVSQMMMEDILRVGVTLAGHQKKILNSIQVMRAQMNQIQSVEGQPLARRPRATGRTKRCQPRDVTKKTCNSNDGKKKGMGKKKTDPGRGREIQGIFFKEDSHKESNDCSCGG
Chain of CDK6 (human) (Q00534 whole entry, looked up): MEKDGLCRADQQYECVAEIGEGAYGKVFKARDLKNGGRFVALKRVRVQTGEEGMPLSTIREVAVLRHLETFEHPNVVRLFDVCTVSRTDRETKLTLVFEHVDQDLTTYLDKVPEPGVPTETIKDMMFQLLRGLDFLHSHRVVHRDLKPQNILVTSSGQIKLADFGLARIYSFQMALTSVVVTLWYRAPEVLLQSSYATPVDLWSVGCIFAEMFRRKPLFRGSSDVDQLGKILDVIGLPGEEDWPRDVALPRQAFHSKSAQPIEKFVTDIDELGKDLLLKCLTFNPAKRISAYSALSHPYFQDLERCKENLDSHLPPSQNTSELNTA
Chain of AURKA (human) (O14965 whole entry, looked up): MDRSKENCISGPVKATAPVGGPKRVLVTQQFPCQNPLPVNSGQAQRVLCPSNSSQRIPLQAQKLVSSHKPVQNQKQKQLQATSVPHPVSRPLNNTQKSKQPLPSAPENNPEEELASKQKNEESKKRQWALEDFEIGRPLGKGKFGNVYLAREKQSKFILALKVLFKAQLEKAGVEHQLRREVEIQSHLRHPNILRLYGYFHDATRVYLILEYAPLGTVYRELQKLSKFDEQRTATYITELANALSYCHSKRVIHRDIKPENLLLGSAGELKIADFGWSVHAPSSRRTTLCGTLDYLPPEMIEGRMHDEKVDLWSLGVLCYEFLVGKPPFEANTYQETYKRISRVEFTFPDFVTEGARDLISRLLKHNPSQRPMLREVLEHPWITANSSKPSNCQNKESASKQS
Chain of NEK4 (human) (P51957 whole entry, looked up): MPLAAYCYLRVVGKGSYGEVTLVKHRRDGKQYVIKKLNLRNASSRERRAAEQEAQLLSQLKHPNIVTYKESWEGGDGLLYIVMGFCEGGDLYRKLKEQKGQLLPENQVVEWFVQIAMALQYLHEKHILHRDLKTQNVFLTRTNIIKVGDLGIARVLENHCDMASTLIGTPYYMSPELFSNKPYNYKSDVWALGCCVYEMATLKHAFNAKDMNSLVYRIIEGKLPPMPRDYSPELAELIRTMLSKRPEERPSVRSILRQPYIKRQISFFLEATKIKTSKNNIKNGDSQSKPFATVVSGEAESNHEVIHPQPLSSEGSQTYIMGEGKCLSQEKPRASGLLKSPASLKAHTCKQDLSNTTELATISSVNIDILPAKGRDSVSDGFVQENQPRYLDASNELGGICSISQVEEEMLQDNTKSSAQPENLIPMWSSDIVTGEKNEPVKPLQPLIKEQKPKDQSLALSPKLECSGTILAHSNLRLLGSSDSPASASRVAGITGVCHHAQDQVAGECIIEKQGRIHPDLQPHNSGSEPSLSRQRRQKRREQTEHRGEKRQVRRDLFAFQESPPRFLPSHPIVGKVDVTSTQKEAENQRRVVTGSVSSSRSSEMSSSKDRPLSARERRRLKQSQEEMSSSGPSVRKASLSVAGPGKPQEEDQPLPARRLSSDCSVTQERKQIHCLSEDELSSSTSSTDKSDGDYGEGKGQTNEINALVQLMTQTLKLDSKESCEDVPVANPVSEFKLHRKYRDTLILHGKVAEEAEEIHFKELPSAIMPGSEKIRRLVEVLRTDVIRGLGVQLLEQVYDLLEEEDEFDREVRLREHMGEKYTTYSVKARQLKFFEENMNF
Chain of PRKCH (human) (P24723 whole entry, looked up): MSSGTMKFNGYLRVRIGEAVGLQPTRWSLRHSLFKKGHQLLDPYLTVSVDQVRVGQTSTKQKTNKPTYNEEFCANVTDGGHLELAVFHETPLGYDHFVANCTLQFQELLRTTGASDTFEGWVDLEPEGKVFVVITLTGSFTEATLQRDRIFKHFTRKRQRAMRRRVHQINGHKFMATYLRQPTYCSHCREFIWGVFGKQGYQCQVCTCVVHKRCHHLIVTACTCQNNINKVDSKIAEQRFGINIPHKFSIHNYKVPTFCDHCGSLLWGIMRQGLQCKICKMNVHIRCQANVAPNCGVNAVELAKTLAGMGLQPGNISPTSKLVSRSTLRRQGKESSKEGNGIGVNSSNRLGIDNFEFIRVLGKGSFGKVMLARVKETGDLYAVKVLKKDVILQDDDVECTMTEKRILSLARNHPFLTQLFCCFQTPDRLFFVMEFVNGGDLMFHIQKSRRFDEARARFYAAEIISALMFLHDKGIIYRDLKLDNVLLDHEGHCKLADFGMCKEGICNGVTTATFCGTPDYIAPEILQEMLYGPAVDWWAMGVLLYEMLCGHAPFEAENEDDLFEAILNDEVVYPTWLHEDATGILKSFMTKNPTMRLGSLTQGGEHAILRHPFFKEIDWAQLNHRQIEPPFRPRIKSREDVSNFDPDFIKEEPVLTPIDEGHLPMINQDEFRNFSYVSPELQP
Chain of MAPK1 (human) (P28482 whole entry, looked up): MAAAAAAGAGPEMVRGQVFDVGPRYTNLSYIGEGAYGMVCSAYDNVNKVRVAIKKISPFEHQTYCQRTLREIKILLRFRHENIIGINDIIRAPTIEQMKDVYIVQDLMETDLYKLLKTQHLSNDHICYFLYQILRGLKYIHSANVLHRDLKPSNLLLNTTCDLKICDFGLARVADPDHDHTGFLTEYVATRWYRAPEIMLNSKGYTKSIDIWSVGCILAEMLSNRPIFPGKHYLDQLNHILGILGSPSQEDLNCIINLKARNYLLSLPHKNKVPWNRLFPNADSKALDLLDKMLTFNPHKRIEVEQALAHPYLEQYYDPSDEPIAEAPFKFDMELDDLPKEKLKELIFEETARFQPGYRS

inhibition ([1]; compound 0.02 µM): -5% and -0.3%
inhibition ([1]; compound 0.2 µM): 35.2% and 36.9%
inhibition ([2]; compound 0.02 µM): -7.5%
inhibition ([2]; compound 0.2 µM): 5.9%
inhibition ([3]; compound 0.02 µM): -7.5%
inhibition ([3]; compound 0.2 µM): 3.6%
inhibition ([4]; compound 0.02 µM): -3.3%
inhibition ([4]; compound 0.2 µM): -3.3%
inhibition ([5]; compound 0.02 µM): -4.6%
inhibition ([5]; compound 0.2 µM): -2.2%
inhibition ([6]; compound 0.02 µM): -5.1%
inhibition ([6]; compound 0.2 µM): -3.5%
inhibition ([7]; compound 0.02 µM): -3.9%
inhibition ([7]; compound 0.2 µM): -2.4%
inhibition ([8]; compound 0.02 µM): -5.9%
inhibition ([8]; compound 0.2 µM): -0.3%
inhibition ([9]; compound 0.02 µM): -3.5%
inhibition ([9]; compound 0.2 µM): -0.7%
inhibition ([10]; compound 0.02 µM): -0.2%
inhibition ([10]; compound 0.2 µM): 1.2%
inhibition ([11]; compound 0.02 µM): -3.6%
inhibition ([11]; compound 0.2 µM): -2%
inhibition ([12]; compound 0.02 µM): 1%
inhibition ([12]; compound 0.2 µM): 6.4%
inhibition ([13]; compound 0.02 µM): 61.6%
inhibition ([13]; compound 0.2 µM): 98.5%
inhibition ([14]; compound 0.02 µM): -0.7%
inhibition ([14]; compound 0.2 µM): -2.1%
inhibition ([15]; compound 0.02 µM): 32.9%
inhibition ([15]; compound 0.2 µM): 89.8%
inhibition ([16]; compound 0.02 µM): -3%
inhibition ([16]; compound 0.2 µM): -0.8%
inhibition ([17]; compound 0.02 µM): -1.7%
inhibition ([17]; compound 0.2 µM): 0.7%
inhibition ([18]; compound 0.02 µM): 0.4%
inhibition ([18]; compound 0.2 µM): 6%
inhibition ([19]; compound 0.02 µM): -6.6%
inhibition ([19]; compound 0.2 µM): -32.1%
inhibition ([20]; compound 0.02 µM): -3.1%
inhibition ([20]; compound 0.2 µM): 0.8%
inhibition ([21]; compound 0.02 µM): -1.8%
inhibition ([21]; compound 0.2 µM): 13.2%
inhibition ([22]; compound 0.02 µM): -2.9%
inhibition ([22]; compound 0.2 µM): 14.4%
inhibition ([23]; compound 0.02 µM): 24.4%
inhibition ([23]; compound 0.2 µM): 73.9%
inhibition ([24]; compound 0.02 µM): 2.1%
inhibition ([25]; compound 0.02 µM): -3.8%
inhibition ([25]; compound 0.2 µM): 3.8%
inhibition ([26]; compound 0.02 µM): -3.9%
inhibition ([26]; compound 0.2 µM): -4.1%
inhibition ([27]; compound 0.02 µM): -0.7%
inhibition ([27]; compound 0.2 µM): 14.6%
inhibition ([28]; compound 0.02 µM): -4.5%
inhibition ([28]; compound 0.2 µM): -4.7%
inhibition ([29]; compound 0.02 µM): -3.9%
inhibition ([29]; compound 0.2 µM): 5.6%
inhibition ([30]; compound 0.02 µM): 0.1%
inhibition ([30]; compound 0.2 µM): 2%
inhibition ([31]; compound 0.02 µM): -1.5%
inhibition ([31]; compound 0.2 µM): 5.4%
inhibition ([32]; compound 0.02 µM): -8%
inhibition ([32]; compound 0.2 µM): 3.9%
inhibition ([33]; compound 0.02 µM): -4%
inhibition ([33]; compound 0.2 µM): -7.2%
SMILES: CNC(=O)c1cc(Oc2ccc(NC(=O)Nc3ccc(Cl)c(C(F)(F)F)c3)cc2)ccn1

inhibition ([1]; compound 0.02 µM): 16.6% and 20.8%
inhibition ([1]; compound 0.2 µM): 62.4% and 63.7%
inhibition ([2]; compound 0.02 µM): -3.9%
inhibition ([2]; compound 0.2 µM): 9.6%
inhibition ([4]; compound 0.02 µM): -2.9%
inhibition ([4]; compound 0.2 µM): 0%
inhibition ([5]; compound 0.02 µM): -2.3%
inhibition ([5]; compound 0.2 µM): 1.4%
inhibition ([6]; compound 0.02 µM): -4.7%
inhibition ([6]; compound 0.2 µM): -5.1%
inhibition ([7]; compound 0.02 µM): -4.3%
inhibition ([7]; compound 0.2 µM): -2.4%
inhibition ([8]; compound 0.02 µM): -6.3%
inhibition ([8]; compound 0.2 µM): -2.7%
inhibition ([9]; compound 0.02 µM): -3.6%
inhibition ([9]; compound 0.2 µM): -3.8%
inhibition ([10]; compound 0.02 µM): 2.7%
inhibition ([10]; compound 0.2 µM): 6.8%
inhibition ([11]; compound 0.02 µM): -1.4%
inhibition ([11]; compound 0.2 µM): -1.9%
inhibition ([12]; compound 0.02 µM): 7.7%
inhibition ([12]; compound 0.2 µM): 22.7%
inhibition ([14]; compound 0.02 µM): 6.2%
inhibition ([14]; compound 0.2 µM): 7.2%
inhibition ([15]; compound 0.2 µM): 83%
inhibition ([16]; compound 0.02 µM): -3.5%
inhibition ([16]; compound 0.2 µM): -0.8%
inhibition ([17]; compound 0.02 µM): 5.5%
inhibition ([17]; compound 0.2 µM): 2%
inhibition ([18]; compound 0.02 µM): 5.8%
inhibition ([18]; compound 0.2 µM): -8.2%
inhibition ([19]; compound 0.02 µM): -5.8%
inhibition ([19]; compound 0.2 µM): -5.8%
inhibition ([20]; compound 0.02 µM): 1.8%
inhibition ([20]; compound 0.2 µM): 2.9%
inhibition ([21]; compound 0.02 µM): 15.1%
inhibition ([21]; compound 0.2 µM): 40.1%
inhibition ([22]; compound 0.02 µM): -1.3%
inhibition ([22]; compound 0.2 µM): -2.7%
inhibition ([34]; compound 0.02 µM): 10.3%
inhibition ([34]; compound 0.2 µM): 47.3%
inhibition ([23]; compound 0.02 µM): -1.6%
inhibition ([23]; compound 0.2 µM): 0.7%
inhibition ([24]; compound 0.02 µM): 6.7%
inhibition ([24]; compound 0.2 µM): 4.3%
inhibition ([25]; compound 0.02 µM): -7.8%
inhibition ([25]; compound 0.2 µM): 42%
inhibition ([26]; compound 0.02 µM): -10.8%
inhibition ([26]; compound 0.2 µM): -6.6%
inhibition ([27]; compound 0.02 µM): 2.4%
inhibition ([27]; compound 0.2 µM): 3.1%
inhibition ([28]; compound 0.02 µM): -3.4%
inhibition ([28]; compound 0.2 µM): -7.1%
inhibition ([29]; compound 0.02 µM): 0.2%
inhibition ([29]; compound 0.2 µM): 3.4%
inhibition ([30]; compound 0.02 µM): 6.2%
inhibition ([30]; compound 0.2 µM): 8.2%
inhibition ([31]; compound 0.02 µM): 11.5%
inhibition ([31]; compound 0.2 µM): 40.7%
inhibition ([32]; compound 0.02 µM): -0.8%
inhibition ([32]; compound 0.2 µM): 3.2%
inhibition ([33]; compound 0.02 µM): -17.4%
inhibition ([33]; compound 0.2 µM): -14.6%
SMILES: Cc1ccc(Nc2nccc(N(C)c3ccc4c(C)n(C)nc4c3)n2)cc1S(N)(=O)=O

inhibition ([1]; compound 0.001 µM): -2.2% and 4.1%
inhibition ([1]; compound 0.02 µM): 16% and 9.7%
inhibition ([2]; compound 0.001 µM): 10.3%
inhibition ([2]; compound 0.02 µM): -5.1%
inhibition ([3]; compound 0.001 µM): 8%
inhibition ([3]; compound 0.02 µM): -5.5%
inhibition ([4]; compound 0.001 µM): -3.9%
inhibition ([4]; compound 0.02 µM): -4.1%
inhibition ([5]; compound 0.001 µM): -3.4%
inhibition ([5]; compound 0.02 µM): -4.5%
inhibition ([6]; compound 0.001 µM): -5.9%
inhibition ([6]; compound 0.02 µM): 2%
inhibition ([7]; compound 0.001 µM): -5.1%
inhibition ([7]; compound 0.02 µM): -5.4%
inhibition ([8]; compound 0.001 µM): -3.7%
inhibition ([8]; compound 0.02 µM): -4.6%
inhibition ([9]; compound 0.001 µM): -3.3%
inhibition ([9]; compound 0.02 µM): -3.7%
inhibition ([10]; compound 0.001 µM): 4.4%
inhibition ([10]; compound 0.02 µM): 2.5%
inhibition ([11]; compound 0.001 µM): -7%
inhibition ([11]; compound 0.02 µM): -4.4%
inhibition ([12]; compound 0.001 µM): 0.4%
inhibition ([12]; compound 0.02 µM): -1.6%
inhibition ([13]; compound 0.001 µM): 21.2%
inhibition ([13]; compound 0.02 µM): 86.7%
inhibition ([14]; compound 0.001 µM): -3.8%
inhibition ([14]; compound 0.02 µM): 5.8%
inhibition ([15]; compound 0.001 µM): 37.8%
inhibition ([15]; compound 0.02 µM): 70.5%
inhibition ([16]; compound 0.001 µM): -5.5%
inhibition ([16]; compound 0.02 µM): -4.4%
inhibition ([17]; compound 0.001 µM): -3.6%
inhibition ([17]; compound 0.02 µM): 4.1%
inhibition ([18]; compound 0.001 µM): 4.4%
inhibition ([18]; compound 0.02 µM): -4.2%
inhibition ([19]; compound 0.001 µM): -7%
inhibition ([19]; compound 0.02 µM): 0.1%
inhibition ([20]; compound 0.001 µM): -8.6%
inhibition ([20]; compound 0.02 µM): 2.9%
inhibition ([21]; compound 0.001 µM): 5.9%
inhibition ([21]; compound 0.02 µM): 3.9%
inhibition ([22]; compound 0.001 µM): -6.4%
inhibition ([22]; compound 0.02 µM): -5.2%
inhibition ([34]; compound 0.001 µM): 6.1%
inhibition ([34]; compound 0.02 µM): 4.2%
inhibition ([23]; compound 0.001 µM): -3.1%
inhibition ([23]; compound 0.02 µM): 4.8%
inhibition ([24]; compound 0.001 µM): 4.5%
inhibition ([24]; compound 0.02 µM): 6.2%
inhibition ([25]; compound 0.001 µM): 10.2%
inhibition ([25]; compound 0.02 µM): -1.9%
inhibition ([26]; compound 0.001 µM): -5.9%
inhibition ([26]; compound 0.02 µM): -7.2%
inhibition ([28]; compound 0.001 µM): -6.5%
inhibition ([28]; compound 0.02 µM): -5.1%
inhibition ([29]; compound 0.001 µM): 2.8%
inhibition ([29]; compound 0.02 µM): -1.1%
inhibition ([30]; compound 0.001 µM): 3.5%
inhibition ([30]; compound 0.02 µM): 4.4%
inhibition ([31]; compound 0.001 µM): 13.3%
inhibition ([31]; compound 0.02 µM): 54.5%
inhibition ([32]; compound 0.001 µM): 0.8%
inhibition ([32]; compound 0.02 µM): -1.4%
inhibition ([33]; compound 0.001 µM): -12.5%
inhibition ([33]; compound 0.02 µM): 4.3%
SMILES: CNC(=O)c1ccccc1Sc1ccc2c(/C=C/c3ccccn3)n[nH]c2c1
